Results reported in the NIST ThermoML archive (doi:10.1007/s10765-016-2150-1).
± gives the expanded uncertainty stated by the source.

Details: Liquid, Oscillating viscometer

O=[N+]([O-])[O-].[Li+] [lithium nitrate]
viscosity (544.9 K): 5.15 ± 0.32 mPa·s | viscosity (554.5 K): 4.457 ± 0.27 mPa·s | viscosity (571.7 K): 4.195 ± 0.26 mPa·s | viscosity (592.1 K): 3.854 ± 0.24 mPa·s | viscosity (595.9 K): 3.618 ± 0.22 mPa·s | viscosity (597 K): 3.72 ± 0.23 mPa·s | viscosity (601.3 K): 3.549 ± 0.22 mPa·s | viscosity (603.3 K): 3.373 ± 0.21 mPa·s | viscosity (619.2 K): 3.075 ± 0.19 mPa·s | viscosity (623.2 K): 3.024 ± 0.18 mPa·s | viscosity (627.2 K): 3.04 ± 0.19 mPa·s | viscosity (662.7 K): 2.448 ± 0.15 mPa·s | viscosity (688.8 K): 2.169 ± 0.14 mPa·s | viscosity (689.2 K): 2.094 ± 0.13 mPa·s
